Literature values, collected in patent US20240016938A1, “METHODS FOR INCREASING THE BIOAVAILABILITY OF NUCLEOSIDE MEDICINAL AGENTS” (ZOGENIX MDS, INC., priority 2022, published 2024).

Conditions: 600-mg oral dose; food intake immediately before oral dosing; cited from earlier work

Cc1cn([C@@H]2C[C@@H](O)[C@H](CO)O2)c(=O)[nH]c1=O [telbivudine, 3-L-2-deoxythymidine]
absorption as measured by Cmax, Tmax, AUC(0-t), and AUC(0-infinity), fed vs fasting: not altered by food intake
